This passage reports IC50 results from ChEMBL document CHEMBL4396934, “Novel α,β-unsaturated hydroxamic acid derivatives overcome cisplatin resistance” (Bioorg Med Chem, 2019).

One may read the IC50 as the concentration that inhibits the measured activity by half. Low values mean higher potency, high ones lower potency.

SMILES strings stand for the structures.

For test [1], the target named is Histone deacetylase. Briefly: Inhibition of HDAC in human CAL27 cells using Boc-Lys(epsilon-Ac)-AMC as substrate preincubated for 18 hrs followed by substrate addition and further incubation for 3 hrs by microplate reader based fluorescence assay. Type of test: cell-based.
Test [2] addresses Histone deacetylase. Briefly: Inhibition of HDAC in human A2780 cells using Boc-Lys(epsilon-Ac)-AMC as substrate preincubated for 18 hrs followed by substrate addition and further incubation for 3 hrs by microplate reader based fluorescence assay. Format: cell-based.
Another test has as its system CAL-27. The test is described as follows: Antiproliferative activity against human CAL27 cells after 72 hrs by microplate reader based MTT assay. Format: functional, cell-based. The note with it: CAL-27, 72 h. (Formazan colour is commonly taken as a measure of viable cells.)
A further test deals with A2780. Briefly: Antiproliferative activity against human A2780 cells after 72 hrs by microplate reader based MTT assay. The note with it: A2780, 72 h. Type of test: functional, cell-based.

As to `O=C(/C=C/c1ccc(CONC(=O)Nc2cccc3ccccc23)cc1)NO`, the IC50 on Histone deacetylase [1] worked out at 40.3 µM; on Histone deacetylase [2] it was 43.2 µM; with CAL-27 it was 34.1 µM; with A2780, 38.9 µM.
For `O=C(/C=C/c1ccc(CONC(=O)c2nccc3ccccc23)cc1)NO`, in that order: 4.48 µM, 1.98 µM, 4.21 µM and 3.15 µM.
Taken in the same sequence, the figures for `O=C(/C=C/c1ccc(CONC(=O)c2ccc3ccccc3c2)cc1)NO` were 2.83 µM, 1.92 µM, 3.65 µM and 3.11 µM.
For `O=C(/C=C/c1ccc(CONC(=O)Nc2ccccc2)cc1)NO`, in that order: 144 µM, 190 µM, 62 µM and 112 µM.
On to `COc1cc(C(=O)NOCc2ccc(/C=C/C(=O)NO)cc2)cc(OC)c1OC`, for which the concentration for half-maximal inhibition (IC50) against Histone deacetylase [1] worked out at 3.14 µM; against Histone deacetylase [2], 6.85 µM; in the test on CAL-27 it was 8.94 µM; in the test on A2780 it was 38.6 µM.
For `Cc1cc(C)cc(C(=O)NOCc2ccc(/C=C/C(=O)NO)cc2)c1`, in that order: 1.09 µM, 0.9 µM, 2.24 µM and 2.33 µM.
For the compound `O=C(/C=C/c1ccc(CONC(=O)Nc2ccccc2-c2ccccc2)cc1)NO`, the half-inhibitory concentration (IC50) against Histone deacetylase [1] worked out at 5.65 µM; at Histone deacetylase [2] it was 4.03 µM; in the test with CAL-27, 2.62 µM; in the test on A2780, 3.57 µM.
For `CCNC(=O)NOCc1ccc(/C=C/C(=O)NO)cc1`, in that order: 14.2 µM, 6.85 µM, 14 µM and 35.4 µM.
As to `Cc1[nH]c2ccccc2c1CCNCc1ccc(/C=C/C(=O)NO)cc1` [PANOBINOSTAT], the IC50 with CAL-27 worked out at 0.0109 µM; with A2780, 0.0548 µM.
As to `CCCCOc1ccc(C(=O)NOCc2ccc(/C=C/C(=O)NO)cc2)cc1`, the IC50 stood at 3 µM against Histone deacetylase [1], 7.6 µM against Histone deacetylase [2], 4.55 µM in the test with CAL-27 and 1.7 µM in the test on A2780.
Taken in the same sequence, the figures for `Cc1[nH]c2ccccc2c1CC(=O)NOCc1ccc(/C=C/C(=O)NO)cc1` were 2.65 µM, 1.12 µM, 5.25 µM and 14 µM.
Taken in the same sequence, the figures for `O=C(/C=C/c1ccc(CONC(=O)c2csc(-c3ccccc3)n2)cc1)NO` were 11.6 µM, 19.2 µM, 16.3 µM and 2.02 µM.
As for `O=C(/C=C/c1ccc(CONC(=O)c2ccccc2)cc1)NO`, the half-inhibitory concentration (IC50) against Histone deacetylase [1] was 1.16 µM; against Histone deacetylase [2], 0.94 µM; in the test with CAL-27 it was 2.99 µM; in the test with A2780 it was 2.08 µM.
In the case of `Cc1cc(C)c(NC(=O)NOCc2ccc(/C=C/C(=O)NO)cc2)c(C)c1`, the half-inhibitory concentration (IC50) against Histone deacetylase [1] was 4.21 µM; against Histone deacetylase [2] it was 2.29 µM; with CAL-27, 3.49 µM; with A2780 it was 3.39 µM.
For `Cc1cc(C)cc(NC(=O)NOCc2ccc(/C=C/C(=O)NO)cc2)c1`, in that order: 1.12 µM, 1.54 µM, 2.27 µM and 2.01 µM.
For `CC(C(=O)NOCc1ccc(/C=C/C(=O)NO)cc1)(c1ccccc1)c1ccccc1`, in that order: 4.81 µM, 3.34 µM, 5.71 µM and 4.55 µM.
